Entries after “also recorded” stand apart in the source; their conditions may differ.
What was measured:
BP3 cell line = test: Apoptosis assay, Annexin V-FITC and propidium iodide, BP3; type: cell-based, human
[1] = Chemical stability at different temperatures; type: physicochemical
[2] = tested on: Bax/Bak double knockout MEF cells (MEF/DKO); test: FITC-Annexin V/PI assay, Bax/Bak double knockout MEF; type: cell-based, mouse; conditions: for toxicity in MEF/DKO cells: 30 μM, FITC-Annexin V/PI
Bcl-XL = Bcl-XL (Homo sapiens, UniProt Q07817); test: Isothermal Titration Calorimetry assay; type: binding; conditions: Kd ratio
[3] = tested on: B6 transgenic mice overexpressing human Bcl-2 in B-cells; test: Bcl-2 transgenic mice, spleen weight; type: in vivo, mouse; conditions: single i.p. injection at 42 mg/kg, 24 hours
[4] = tested on: MDA-MB-231 breast cancer cells; conditions: read-out: EC50 in killing MDA-MB-231 breast cancer cells; cited from earlier work
GST–Bcl-XL ΔTM protein = GST–Bcl-XL ΔTM protein (Homo sapiens, UniProt Q07817); conditions: read-out: IC50 binding to Bcl-XL in FPA assays; cited from earlier work
GST–Bcl-XL ΔTM protein, sequence (Q07817 1-211 limits assumed, stated change not applied): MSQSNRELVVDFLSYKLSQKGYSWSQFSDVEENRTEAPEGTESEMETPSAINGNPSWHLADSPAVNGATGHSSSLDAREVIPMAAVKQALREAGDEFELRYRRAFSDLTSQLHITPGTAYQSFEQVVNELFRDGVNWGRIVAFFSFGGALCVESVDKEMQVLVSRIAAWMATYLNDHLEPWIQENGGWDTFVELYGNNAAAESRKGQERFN

Bcl-XL, sequence (Q07817 whole entry): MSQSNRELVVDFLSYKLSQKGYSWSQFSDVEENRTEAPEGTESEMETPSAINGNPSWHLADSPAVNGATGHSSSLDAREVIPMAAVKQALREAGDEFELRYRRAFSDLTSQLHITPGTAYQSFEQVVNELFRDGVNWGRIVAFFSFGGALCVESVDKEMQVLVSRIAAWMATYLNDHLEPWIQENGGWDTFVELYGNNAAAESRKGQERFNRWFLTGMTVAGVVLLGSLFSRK

CN(C)CC[C@H](CSc1ccccc1)Nc1ccc(S(=O)(=O)NC(=O)c2ccc(N3CCN(Cc4ccccc4-c4ccc(Cl)cc4)CC3)cc2)cc1[N+](=O)[O-] [ABT-737]
apoptosis induction / cytotoxic activity against BP3 cell line (BP3 cell line): no cytotoxic activity

Cc1cc2c(C(=O)NC[C@H](C)c3ccccc3)c(O)c(O)cc2c(O)c1-c1c(C)cc2c(C(=O)NC[C@H](C)c3ccccc3)c(O)c(O)cc2c1O (single isomer, unassigned) [Compound 11]
chemical stability [1]: better chemical stability compared to other compounds (12–14) | cytotoxicity against bax−/−bak−/− cells [2]: less cytotoxicity against bax^−/−bak^−/− cells compared to compound 4; also recorded: little cytotoxicity | toxicity in MEF/DKO cells [2]: slight toxicity | times more potent than other isomers 12–14 in ITC assay (Bcl-XL): 4–20 times | spleen weight reduction [3]: more than 30% | inhibition of tumor growth (M2182 tumor xenografts; 5 mg/kg i.p. every 2 days, nine injections, both flanks): near complete inhibition of tumor growth | tolerability of treatment (M2182 tumor xenografts; mouse, in vivo, ip): no apparent signs of toxicity

Cc1cc2c(C(=O)NC[C@H](C)c3ccccc3)c(O)c(O)cc2c(O)c1-c1c(C)cc2c(C(=O)NC[C@H](C)c3ccccc3)c(O)c(O)cc2c1O (single isomer, unassigned) [Compound 12]
spleen weight reduction [3]: weak in vivo activity

Cc1cc2c(C(=O)NC[C@@H](C)c3ccccc3)c(O)c(O)cc2c(O)c1-c1c(C)cc2c(C(=O)NC[C@@H](C)c3ccccc3)c(O)c(O)cc2c1O [Compound 14, (R)-1,1′,6,6′,7,7′-hexahydroxy-3,3′-dimethyl-N^5-((S)-2-phenylpropyl)-N^5′-((S)-2-phenylpropyl)-2,2′-binaphthyl-5,5′-dicarboxamide]
toxicity in MEF/DKO cells [2]: almost equally effective in killing both MEF/WT and MEF/DKO

Cc1cc2c(C(C)C)c(O)c(O)c(C=O)c2c(O)c1-c1c(C)cc2c(C(C)C)c(O)c(O)c(C=O)c2c1O (single isomer, unassigned) [(+) 1, Gossypol]
EC50 [4]: ~10 µM

Cc1cc2c(C(C)C)c(O)c(O)c(C=O)c2c(O)c1-c1c(C)cc2c(C(C)C)c(O)c(O)c(C=O)c2c1O (single isomer, unassigned) [(−) 1, Gossypol]
IC50 (GST–Bcl-XL ΔTM protein): 480 nM | EC50 [4]: ~2 µM
